Source: ChEMBL document CHEMBL5214963, “Development of a penetratin-conjugated stapled peptide that inhibits Wnt/β-catenin signaling” (Bioorg Med Chem, 2022)
Activity calls are given as the source filed them. No cut-off for these calls is given here. *1 amine or outer side, *2 acyl side, *3 side chain or, on linkers, in order; H or OH if unused. Where a SMILES comes first, the peptide text is derived from it. Bridges are numbered along the chain shown (N, C = ends). [ ]: non-standard residue; d: D form. Nle(6-ylidene) = O=C([C@H](CCCC=[*:3])N[*:1])[*:2]; Nle = CCCC[C@H](N)C(=O)O; βAla = NCCC(=O)O

Columns and labels:
[1] = Stability of the compound in proteinase K (unknown origin) assessed as remaining parent compound at 100 uM measured after 480 mins by HPLC analysis; type: ADME; settings: read-out: Stability
[2] = test system: A549; test: Cytotoxicity against human A549 cells assessed as cell growth inhibition at 20 uM incubated for 24 hrs by CellTiter-Glo reagent based microplate reader analysis; type: functional
[3] = test system: DLD-1; test: Cytotoxicity against human DLD-1 cells assessed as reduction in cell growth at 20 uM incubated for 24 hrs by CellTiter-Glo reagent based microplate reader analysis; type: functional
[4] = test system: A549; test: Cytotoxicity against human A549 cells assessed as cell growth inhibition at 20 uM incubated for 5 days by CellTiter-Glo reagent based microplate reader analysis; type: functional; settings: time 5.0 day
[5] = test system: DLD-1; test: Cytotoxicity against human DLD-1 cells assessed as cell growth inhibition at 20 uM incubated for 5 days by CellTiter-Glo reagent based microplate reader analysis; type: functional; settings: time 5.0 day
[6] = test system: HEK293; test: (§1) Inhibition of Wnt/beta-catenin transactivation signalling in Wnt3a stimulated human HEK293 cells harbouring TCF/LEF luciferase reporter gene assessed as inhibition TCF-beta-catenin complex formation by measuring luminescence level at 20 uM preincubated for 15 hrs followed by recombinant mouse Wnt-3a addition and measured after 5 hrs by luminescence based microplate reader analysis; type: cell-based; settings: time 20.0 hrs
[7] = test system: HEK293; test: as §1, with “50” for “20”; type: cell-based; settings: time 20.0 hrs
[8] = test system: HEK293; test: as §1, with “level at 0.1 to 20 uM” for “level at 20 uM”; type: cell-based; settings: dose 0.1-20 µM, time 20.0 hrs, DDE = dose-dependent effect

Compound `CC(C)C[C@H](NC(=O)[C@H](C)NC(=O)[C@H](C)NC(=O)CCN)C(=O)N[C@@H](CC(C)C)C(=O)N[C@@H](CC(=O)O)C(=O)N[C@@H](Cc1ccc(O)cc1)C(=O)N[C@H](C(=O)N[C@@H](CS)C(=O)N[C@@H](CC(N)=O)C(=O)N[C@@H](Cc1ccc(O)cc1)C(=O)O)[C@@H](C)O` (H-[βAla]AALLDYTCNY-OH) has a remaining at 8 h, 100 µM [1] of 0.1%.
Work on `CCCC[C@H](NC(=O)[C@@H]1CCC/C=C\CCC[C@H](NC(=O)[C@H](C)NC(=O)[C@H](C)NC(=O)CCN)C(=O)N[C@@H](CC(C)C)C(=O)N[C@@H](CC(=O)O)C(=O)N[C@@H](Cc2ccc(O)cc2)C(=O)N1)C(=O)N[C@@H](CS)C(=O)N[C@@H](CC(N)=O)C(=O)N[C@@H](Cc1ccc(O)cc1)C(=O)O` (H-[βAla]AA[Nle(6-ylidene)]LDY[Nle(6-ylidene)][Nle]CNY-OH; staple (Z) 4-8) yielded a remaining at 8 h, 100 µM [1] of 65%.
With `CCCC[C@H](NC(=O)[C@@H]1CCC/C=C\CCC[C@H](NC[C@H](C)NC(=O)[C@H](C)NC(=O)CCNC(=O)[C@H](CCC(N)=O)NC(=O)[C@@H]2CCCN2C(=O)[C@@H]2CCCN2C(=O)[C@H](CCCNC(=N)N)NC(=O)[C@H](CCCNC(=N)N)NC(=O)[C@H](CCCNC(=N)N)NC(=O)[C@H](CCC(N)=O)NC(=O)[C@H](CCCNC(=N)N)NC(=O)[C@H](CCCNC(=N)N)NC(=O)[C@H](CCCCN)NC(=O)[C@H](CCCCN)NC(=O)[C@H](CCCNC(=N)N)NC(=O)CN)C(=O)N[C@@H](CC(C)C)C(=O)N[C@@H](CC(=O)O)C(=O)N[C@@H](Cc2ccc(O)cc2)C(=O)N1)C(=O)N[C@@H](CS)C(=O)N[C@@H](CC(N)=O)C(=O)N[C@@H](Cc1ccc(O)cc1)C(=O)O` the Activity [2] was “Active” and the Activity [3] was “Active”.
In the case of `CC[C@H](C)[C@@H]1NC(=O)[C@@H](NC(=O)[C@H](CCCNC(=N)N)NC(=O)[C@@H]2CCCN2C(=O)[C@H](Cc2c[nH]c3ccccc23)NC(=O)[C@H](CCCNC(=N)N)NC(=O)[C@H](CCCNC(=N)N)NC(C)=O)CCC/C=C\CCC[C@@H](C(=O)N[C@@H](Cc2cnc[nH]2)C(=O)N[C@H](C(=O)N[C@@H](CCCNC(=N)N)C(=O)N[C@@H](CCCNC(=N)N)C(=O)N[C@H](C(=O)N[C@@H](Cc2c[nH]c3ccccc23)C(=O)N[C@@H](CCCNC(=N)N)C(=O)O)C(C)C)C(C)C)NC(=O)[C@H](CC(=O)O)NC(=O)[C@H](CC(C)C)NC1=O` (Ac-RRWPR[Nle(6-ylidene)]ILD[Nle(6-ylidene)]HVRRVWR-OH; staple (Z) 6-10), the Activity [4] is reported as “Active”, the Activity [5] is reported as “Active” and the inhibition [6] is reported as “Active”.
In the case of `CCCC[C@H](NC(=O)[C@@H]1CCC/C=C\CCC[C@H](NC(=O)[C@H](C)NC(=O)[C@H](C)NC(=O)CCNC(=O)[C@H](CCCNC(=N)N)NC(=O)[C@H](CCCNC(=N)N)NC(=O)[C@H](CCCNC(=N)N)NC(=O)[C@H](CCCNC(=N)N)NC(=O)[C@H](CCCNC(=N)N)NC(=O)[C@H](CCCNC(=N)N)NC(=O)[C@H](CCCNC(=N)N)NC(=O)[C@@H](N)CCCNC(=N)N)C(=O)N[C@@H](CC(C)C)C(=O)N[C@@H](CC(=O)O)C(=O)N[C@@H](Cc2ccc(O)cc2)C(=O)N1)C(=O)N[C@@H](CS)C(=O)N[C@@H](CC(N)=O)C(=O)N[C@@H](Cc1ccc(O)cc1)C(=O)O`, the Activity [2] is reported as “Active” and the Activity [3] is reported as “Active”.
In the case of `O=C(Nc1cccc2cccnc12)c1ccc(N2C(=O)[C@@H]3[C@H](C2=O)[C@@H]2C=C[C@H]3C2)cc1`, the inhibition [7] is reported as “Active”.
With `CCCC[C@H](NC(=O)[C@@H]1CCC/C=C\CCC[C@H](NC(=O)[C@H](C)NC(=O)[C@H](C)NC(=O)CCNC(=O)[C@H](CCCCN)NC(=O)[C@H](CCCCN)NC(=O)[C@H](Cc2c[nH]c3ccccc23)NC(=O)[C@H](CCCCN)NC(=O)[C@H](CCSC)NC(=O)[C@H](CCCNC(=N)N)NC(=O)[C@H](CCCNC(=N)N)NC(=O)[C@H](CC(N)=O)NC(=O)[C@H](CCC(N)=O)NC(=O)[C@H](Cc2ccccc2)NC(=O)[C@H](Cc2c[nH]c3ccccc23)NC(=O)[C@@H](NC(=O)[C@H](CCCCN)NC(=O)[C@@H](NC(=O)[C@H](CCC(N)=O)NC(=O)[C@@H](N)CCCNC(=N)N)[C@@H](C)CC)[C@@H](C)CC)C(=O)N[C@@H](CC(C)C)C(=O)N[C@@H](CC(=O)O)C(=O)N[C@@H](Cc2ccc(O)cc2)C(=O)N1)C(=O)N[C@@H](CS)C(=O)N[C@@H](CC(N)=O)C(=O)N[C@@H](Cc1ccc(O)cc1)C(=O)O` the Activity [4] was “Active”, the Activity [2] was “Active” and the Activity [3] was “Active”. For the same compound, the Activity [5] was “Active” and the inhibition [8] was “Dde”.
